Test results from paper PMC11571207, “Stereorandomized Oncocins with Preserved Ribosome Binding and Antibacterial Activity” (Journal of Medicinal Chemistry, 2024).
Non-standard residues stand in square brackets, D forms with d. Residues, ends and D or L forms follow the SMILES beside them. Orn = NCCC[C@H](N)C(=O)O

What was measured:
human red blood cells = details: red cells of human, 6 h
[1] = 25% (v/v) human serum in 0.1 M TRIS buffer pH 7.4, peptide 200 μM, 37 °C, 0/24/48/72 h, LC-MS UV trace vs 4-hydroxybenzoic acid internal standard, n = 3
Experimental: Human serum was diluted in 0.1 M filtered TRIS buffer pH 7.4 (50%, 1:1, v/v). Selected peptides were diluted in 0.1 M filtered TRIS buffer pH 7.4 to a concentration of 400 μM and 0.1 mg/mL 4- hydroxybenzoic acid was added as internal standard. Aliquots of peptide solution (300 μL) were added to aliquots of serum (300 μL) in sterile 1.5 mL Eppendorf tubes, to reach a peptide concentration of 200 μM and 25% (v/v) human serum during the assay. Samples, in triplicate, were incubated at 37 °C under gentle stirri ng (200 rpm). At different time points (0, 24, 48 and 72 hours), 100 μL of each sample was collected and quenched by precipitating serum proteins through the addition of (0.1 M) ZnSO4·7 H2O / ACN (1:1) (0.1 M, 100 μL) and cooling in ice bath for 10 minutes. Protein precipitates were pelleted under centrifugation (5 min at 14’000 rpm) and the supernatants were analysed by LC-MS. Peaks corresponding to the internal standard and the undegraded peptides were integrated from the area under the curves (AUC) of UV traces, with the ratio peptide/standard at t = 0 h as 100%.
Figure S7. Serum stability assay of the respective compound (200 μM), incubated with human serum (25% in TRIS buffer, 0.1 M, pH 7.4) at 37 °C. Aliquots were taken at different time (0 / 24 / 48 and 72 h). Undegraded peptide values determined by RP -HPLC analysis usi ng hydroxybenzoic acid as internal standard. Measured in triplicates and the data represent mean ± SD, n […]
(1 picture or pasted object on this page, not shown here)

[2] = target: chaperone DnaK (His-tagged) (UniProt P0A6Y8); test: MST; 16 two-fold dilutions of L-Onc from a maximum of 100 μM, mixed 1:1 with 40 nM His-Tag-labeled DnaK; MST buffer (50 mM TRIS, 150 mM NaCl, 10 mM MgCl2, Tween 20 0.05%); Monolith NT.115; apparent
Chain of chaperone DnaK (His-tagged) (P0A6Y8 whole entry): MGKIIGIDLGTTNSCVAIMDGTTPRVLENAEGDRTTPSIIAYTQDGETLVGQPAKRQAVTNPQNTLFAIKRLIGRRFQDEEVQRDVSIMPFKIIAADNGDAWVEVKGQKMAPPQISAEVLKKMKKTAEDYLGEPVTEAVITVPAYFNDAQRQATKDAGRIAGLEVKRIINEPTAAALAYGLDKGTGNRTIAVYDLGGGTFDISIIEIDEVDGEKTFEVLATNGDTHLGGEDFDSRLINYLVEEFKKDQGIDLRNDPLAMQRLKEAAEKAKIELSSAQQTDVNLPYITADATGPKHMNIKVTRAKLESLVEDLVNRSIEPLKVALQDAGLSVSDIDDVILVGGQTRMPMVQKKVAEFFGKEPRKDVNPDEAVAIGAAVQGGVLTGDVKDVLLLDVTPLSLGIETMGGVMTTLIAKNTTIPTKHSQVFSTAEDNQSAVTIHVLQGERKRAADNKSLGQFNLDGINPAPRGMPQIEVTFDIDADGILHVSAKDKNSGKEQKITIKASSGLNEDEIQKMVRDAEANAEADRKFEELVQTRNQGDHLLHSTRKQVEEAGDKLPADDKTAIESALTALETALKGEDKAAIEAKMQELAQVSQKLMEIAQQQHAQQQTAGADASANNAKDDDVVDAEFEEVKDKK

Compound	MHC human red blood cells (human red blood cells)	Serum stability (undegraded peptide) [1]	Kd [2]
CC[C@H](C)[C@H](NC(=O)[C@H](CCCN)NC(=O)[C@H](CCCNC(=N)N)NC(=O)[C@@H]1CCCN1C(=O)[C@@H]1CCCN1C(=O)[C@H](CCCNC(=N)N)NC(=O)[C@@H]1CCCN1C(=O)[C@H](CCCNC(=N)N)NC(=O)[C@@H]1CCCN1C(=O)[C@H](CC(C)C)NC(=O)[C@H](Cc1ccc(O)cc1)NC(=O)[C@@H]1CCCN1C(=O)[C@@H]1CCCN1C(=O)[C@H](CCCCN)NC(=O)[C@H](CC(=O)O)NC(=O)[C@@H](N)C(C)C)C(=O)N[C@@H](Cc1ccc(O)cc1)C(=O)N[C@@H](CC(N)=O)C(=O)N[C@@H](CCCN)C(N)=O [Onc72] (H-VDKPPYLPRPRPPR[Orn]IYN[Orn]-NH2)	>1000 µg/mL	essentially stable to degradation over 24 h	
oncocin (L-oncocin) (peptide)			30 µM
